The target in the assay is human NaV 1.8 (Homo sapiens, UniProt Q9Y5Y9). Kind of assay: E-VIPR Assay Detecting and Measuring NaV Inhibition Properties. The assay is classed as cell-based. The following applies: HEK cells expressing a truncated form of human NaV 1.8; compound number without "*" (not marked as run in the presence of human serum). From the text:
Sodium ion channels are voltage-dependent proteins that can be activated by inducing membrane voltage changes by applying electric fields. The electrical stimulation instrument and methods of use, referred to as E-VIPR, are described in International Publication No. WO 2002/008748 A3 and C.-J. Huang et al. Characterization of voltage-gated sodium channel blockers by electrical stimulation and fluorescence detection of membrane potential, 24 Nature Biotech. 439-46 (2006), both of which are incorporated by reference in their entirety. The instrument comprises a microtiter plate handler, an optical system for exciting the coumarin dye while simultaneously recording the coumarin and oxonol emissions, a waveform generator, a current- or voltage-controlled amplifier, and parallel electrode pairs that are inserted into assay plate wells. Under integrated computer control, this instrument passes user-programmed electrical stimulus protocols to cells within the wells of the microtiter plate.
16-20 hours prior to running the assay on E-VIPR, HEK cells expressing a truncated form of human NaV 1.8 with full channel activity were seeded into microtiter 384-well plates, pre-coated with matrigel, at a density of 25,000 cells per well. 2.5-5% KIR2.1 Bacmam virus was added to the final cell suspension before seeding into cell plates. HEK cells were grown in Dulbecco's Modified Eagle's Medium (DMEM) supplemented with 10% FBS (Fetal Bovine Serum, qualified; Sigma #F4135), 1% NEAA (Non-Essential Amino Acids, Gibco #11140), 1% HEPES (Gibco #15630), 1% Pen-Strep (Penicillin-Streptomycin; Gibco #15140) and 5 μg/ml Blasticidin (Gibco #R210-01). Cells were expanded in vented cap cell culture flasks, with 90-95% humidity and 5% CO2.
Reagents and Stock Solutions:
• 100 mg/mL Pluronic F-127 (Sigma #P2443), in dry DMSO • Compound Plates: Corning 384-well Polypropylene Round Bottom #3656 • Cell Plates: 384-well tissue culture treated plates (Greiner #781091-2B)
2.5-5% KIR 2.1 Bacmam virus (produced in-house), prepared as described in Section 3.3 of J. A. Fornwald et al., Gene Expression in Mammalian Cells Using BacMam, a Modified Baculovirus System, 1350 Methods in Molecular Biology 95-116 (2016), the entire contents of which are incorporated by reference. The concentration used can be dependent on viral titer of each batch.
5 mM DiSBAC6(3), a voltage sensitive oxonol acceptor (CAS number 169211-44-3; 5-[3-(1,3-dihexylhexahydro-4,6-dioxo-2-thioxo-5-pyrimidinyl)-2-propen-1-ylidene]-1,3-dihexyldihydro-2-thioxo-4,6(1H,5H)-pyrimidinedione), in dry DMSO. The preparation of DiSBAC6(3) is analogous to that of DiSBAC4(3) as described in Voltage Sensing by Fluorescence Resonance Energy Transfer in Single Cells, Gonzalez, J. E. and Tsien, R. Y. (1995) Biophys. J. 69, 1272-1280.
5 mM CC2-DMPE, a commercially available membrane-bound coumarin phospholipid FRET donor (ThermoFisher Scientific catalog number K1017, CAS number 393782-57-5; tetradecanoic acid, 1,1′-[(1R)-1-[8-(6-chloro-7-hydroxy-2-oxo-2H-1-benzopyran-3-yl)-3-hydroxy-3-oxido-8-oxo-2,4-dioxa-7-aza-3-phosphaoct-1-yl]-1,2-ethanediyl] ester) was prepared in dry DMSO. See also, Improved indicators of cell membrane potential that use fluorescence resonance energy transfer, Gonzalez, J. E. and Tsien, R. Y. (1997) Chem. Biol. 4, 269-277.
Voltage Assay Background Suppression Compound (VABSC-1) is prepared in H2O (89-363 mM, range used to maintain solubility)
Human Serum (HS, Millipore #S1P1-01KL, or Sigma SLBR5469V and SLBR5470V as a 50%/50% mixture, for 25% assay final concentration)
• Sodium Chloride 160 mM (9.35 g/L), Potassium Chloride, 4.5 mM (0.335 g/L), Glucose 10 mM (1.8 g/L), Magnesium Chloride (Anhydrous) 1 mM (0.095 g/L), Calcium Chloride 2 mM (0.222 g/L), HEPES 10 mM (2.38 g/L) in water. […]

Molecules are shown by their SMILES.

Chain of human NaV 1.8 (Q9Y5Y9 126-1722 limits assumed): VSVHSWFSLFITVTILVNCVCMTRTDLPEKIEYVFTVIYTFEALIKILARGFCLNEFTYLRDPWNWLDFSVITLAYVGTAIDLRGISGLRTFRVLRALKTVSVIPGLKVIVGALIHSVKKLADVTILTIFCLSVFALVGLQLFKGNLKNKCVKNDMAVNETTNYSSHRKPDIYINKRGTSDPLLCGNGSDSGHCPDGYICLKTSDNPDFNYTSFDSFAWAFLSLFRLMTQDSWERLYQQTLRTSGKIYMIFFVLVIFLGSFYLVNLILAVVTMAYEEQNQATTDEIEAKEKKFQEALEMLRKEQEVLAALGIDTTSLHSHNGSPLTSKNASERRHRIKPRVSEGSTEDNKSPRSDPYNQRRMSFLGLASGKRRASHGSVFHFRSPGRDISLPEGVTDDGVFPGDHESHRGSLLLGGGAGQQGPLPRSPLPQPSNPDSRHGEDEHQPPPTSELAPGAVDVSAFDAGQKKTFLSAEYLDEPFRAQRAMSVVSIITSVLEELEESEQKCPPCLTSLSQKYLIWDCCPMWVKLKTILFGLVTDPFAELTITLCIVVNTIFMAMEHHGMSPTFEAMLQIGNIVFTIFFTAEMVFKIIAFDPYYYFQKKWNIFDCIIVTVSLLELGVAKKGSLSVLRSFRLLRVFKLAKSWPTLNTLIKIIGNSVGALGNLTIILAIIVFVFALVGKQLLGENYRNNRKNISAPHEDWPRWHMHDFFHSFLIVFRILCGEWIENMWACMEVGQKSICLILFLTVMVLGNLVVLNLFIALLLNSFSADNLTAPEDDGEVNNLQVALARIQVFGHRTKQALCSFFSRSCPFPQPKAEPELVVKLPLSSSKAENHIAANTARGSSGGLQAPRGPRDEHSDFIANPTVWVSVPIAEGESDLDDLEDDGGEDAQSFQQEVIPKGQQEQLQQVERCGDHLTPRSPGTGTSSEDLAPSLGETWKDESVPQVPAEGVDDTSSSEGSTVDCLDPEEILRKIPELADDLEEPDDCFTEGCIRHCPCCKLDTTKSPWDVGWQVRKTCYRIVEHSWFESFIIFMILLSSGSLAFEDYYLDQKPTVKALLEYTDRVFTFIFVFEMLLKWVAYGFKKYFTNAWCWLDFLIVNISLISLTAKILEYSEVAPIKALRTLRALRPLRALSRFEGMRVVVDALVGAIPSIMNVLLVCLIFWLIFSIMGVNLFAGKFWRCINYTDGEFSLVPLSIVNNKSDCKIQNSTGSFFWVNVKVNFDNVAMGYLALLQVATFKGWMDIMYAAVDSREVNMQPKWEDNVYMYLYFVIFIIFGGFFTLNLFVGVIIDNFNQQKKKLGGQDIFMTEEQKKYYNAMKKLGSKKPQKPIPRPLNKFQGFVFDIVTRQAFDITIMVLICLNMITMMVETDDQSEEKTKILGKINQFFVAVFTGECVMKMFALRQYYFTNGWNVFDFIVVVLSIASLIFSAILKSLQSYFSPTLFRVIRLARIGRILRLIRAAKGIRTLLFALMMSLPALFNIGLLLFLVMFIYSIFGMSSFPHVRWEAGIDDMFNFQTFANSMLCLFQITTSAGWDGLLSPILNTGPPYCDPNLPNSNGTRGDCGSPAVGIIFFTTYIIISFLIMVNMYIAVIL

`COc1c([C@@H]2[C@H](OC(C)C)[C@H](C)O[C@H]2C(=O)Nc2ccc([C@@H](O)CO)nc2)ccc(F)c1F` [Compound 16, (2R,3R,4S,5S)-3-(3,4-difluoro-2-methoxyphenyl)-N-(6-((R)-1,2-dihydroxyethyl)pyridine-3-yl)-4-isopropoxy-5-methyltetrahydrofuran-2-carboxamide]: the IC50 is at least 1000 nM. Regarding `COc1c([C@@H]2[C@H](OC(C)C)[C@H](C)O[C@H]2C(=O)Nc2ccc(CO)nc2)ccc(F)c1F` [Compound 17, (2R,3R,4S,5S)-3-(3,4-difluoro-2-methoxyphenyl)-N-(6-(hydroxymethyl)pyridin-3-yl)-4-isopropoxy-5-methyltetrahydrofuran-2-carboxamide], the IC50 is at least 1000 nM.

In the case of `COc1c([C@@H]2[C@H](OC)[C@H](C(C)C)O[C@H]2C(=O)Nc2ccnc(C(N)=O)c2)ccc(F)c1F` [Compound 24, 4-((2R,3R,4S,5S)-3-(3,4-difluoro-2-methoxyphenyl)-5-isopropyl-4-methoxytetrahydrofuran-2-carboxamido)picolinamide], the IC50 is below 10 nM. Take `CCO[C@H]1[C@@H](c2ccc(F)c(F)c2OC)[C@H](C(=O)Nc2ccnc(C(N)=O)c2)O[C@@]1(C)C(F)(F)F` [Compound 25, 4-((2R,3R,4S,5R)-3-(3,4-difluoro-2-methoxyphenyl)-4-ethoxy-5-methyl-5-(trifluoromethyl)tetrahydrofuran-2-carboxamido)picolinamide]: the IC50 was below 10 nM.

In general, IC50 refers to the concentration needed to halve the response being measured.

The values above are taken from patent publication US12662470B2, “Hydroxy and (halo)alkoxy substituted tetrahydrofurans as modulators of sodium channels” (VERTEX PHARMACEUTICALS INCORPORATED, priority 2021, dated 2026).
